Experimental data reported in patent US20040037806A1, “Aldosterone blocker therapy to prevent or treat inflammation-related disorders” (Pharmacia Corporation, priority 2002, published 2004).
Where “and” joins values, the source holds several entries; their conditions need not be identical. Equal entries are not always repeated. Entries after “also recorded” stand apart in the source; their conditions may differ.

Key:
Format in all cases: in vivo, rat
[1] = Assay A: angiotensin II infusion model, systolic blood pressure by tail-cuff; conditions: Wistar rats, 1% NaCl to drink, angiotensin II 25 ng/min sc, 4 weeks; eplerenone 100 mpk; aldosterone given to adrenalectomized, dexamethasone-treated rats
[2] = Assay A: angiotensin II infusion model, heart histology (hematoxylin&eosin), vascular inflammation and myocardial injury; conditions: Wistar rats, 1% NaCl, angiotensin II 25 ng/min sc, 4 weeks, 10/group; eplerenone 100 mpk; aldosterone replacement in adrenalectomized rats
Source text: Assay A: In Vivo Angiotensin II Infusion Model
Male Wistar rats (n=50, 10/group; BW=200 g)
Sacrifice by exanguination after 4 weeks. Blood was be collected in dry tubes for determination of serum electrolytes and in EDTA-containing tubes for measurement of aldosterone and corticosterone levels
Hearts were stained with hematoxylin&eosin and have been analyzed for determination of morphologic abnormalities (i.e. necrosis, vascular injury).

cyclooxygenase-2 (COX-2) = test: Assay A: cyclooxygenase-2 immunostaining of hearts; conditions: angiotensin II-infused, saline-drinking Wistar rats, eplerenone 100 mpk, aldosterone replacement in adrenalectomized rats
[3] = Assay B: aldosterone infusion model, heart histology, vascular inflammatory lesions and myocardial injury; conditions: aldosterone-infused, saline-drinking, uni-nephrectomized Sprague Dawley rats, 4 weeks; eplerenone 100 mpk p.o; 0.6% KCl in the drinking fluid
Experimental: Assay B: In Vivo Aldosterone Infusion Model
Male Sprague Dawley rats (n=39; BW=250 g)
→ Hearts were harvested and divided by half through a transverse section at the mid-ventricles: The upper half was stored into formalin. The bottom part was snap-frozen in liquid nitrogen for biochemical analysis.
Hearts were stained with hematoxylin&eosin and the collagen specific dye picro-sirius red and were analyzed for determination of interstitial collagen volume fraction and morphologic abnormalities (i.e. necrosis, vascular injury).

[4] = Assay C: myocardial hydroxyproline colorimetric assay; conditions: 7 days of treatment; myocardium; aldosterone + salt alone or with eplerenone 100 mg/kg/day; individual rats and group Mean
Experimental: The procedure of Assay B was expanded upon in a further study. […] Myocardial tissue from animals in each treatment group was examined after 7, 14, or 30 days of treatment. […] Lesions were preceded by the expression and progressive upregulation of proinflammatory molecules. […] Prior to surgery the animals were individually weighed and placed in one of the following groups: […] Potassium chloride supplementation was added to the saline solution in order to prevent the potential hypokalemia associated with aldosterone excess. Treatment At the time of the surgery, an Alzet 2002 osmotic minipump (Alza Corp., Palo Alto, Calif.) containing either vehicle (9% ethanol/87% propylene glycol/4% dH2O) or 1.0 mg/mL d-aldosterone (Sigma Chemical, St. Louis, Mo.) was inserted subcutaneously at the nape of the neck. Aldosterone was administered at a dose of 0.75 µg/hour. […] Animals were sacrificed from each group (n=8-13) after 7, 14, or 30 days of treatment. Myocardial hydroxyproline concentration was measured by a colorimetric assay that quantifies the reaction between oxidized hydroxyproline, and p-dimethylaminobenzaldehyde as described previously (4). […] Samples were incubated at 60° C. for 30 min, cooled to room temperature, and absorbance was monitored at 558 nm. Hydroxyproline content was quantitated from a freshly prepared standard curve of trans-4-hydroxy-L-proline (Sigma, St. Louis, Mo.). […]

[5] = Histopathological scores for renal injury in angiotensin II infused, captopril treated stroke prone spontaneously hypertensive rats; conditions: captopril treated stroke prone spontaneously hypertensive rats (FIG. 36)
osteopontin = test: Assay B: osteopontin mRNA by quantitative RT-PCR (Taqman); conditions: aldosterone/salt-treated rats receiving vehicle
Experimental: (§1) Assay B: In Vivo Aldosterone Infusion Model Determination of osteopontin and COX-2 was performed by quantitative RT-PCR (Taqman). Osteopontin was also identified in the heart by immunohistochemistry.

COX-2 = test: Assay B: COX-2 mRNA by quantitative RT-PCR (Taqman)
Experimental: as §1

| SMILES | Systolic blood pressure [1] | Vascular inflammatory lesions in the coronary arteries / heart [2] | Cyclooxygenase-2 expression in the heart (immunostaining) (cyclooxygenase-2 (COX-2)) | Cyclooxygenase-2 expression in the heart (immunostaining) (cyclooxygenase-2 (COX-2); listed as Eplerenone) | Vascular inflammatory lesions / myocardial injury (hematoxylin-eosin) [3] | Hydroxyproline [4] | Histopathological scores for renal injury [5] | Upregulation of osteopontin mRNA vs control (osteopontin) | Increase of COX-2 mRNA expression vs control (COX-2; aldosterone/salt+vehicle treatment) | COX-2 relative mRNA expression in the heart (COX-2; aldosterone/salt-treated rats, 4 weeks, vehicle or eplerenone 100 mpk p.o, control 1.2±0.12) |
| --- | --- | --- | --- | --- | --- | --- | --- | --- | --- | --- |
| COC(=O)[C@@H]1CC2=CC(=O)CC[C@]2(C)[C@@]23O[C@@H]2C[C@@]2(C)[C@@H](CC[C@@]24CCC(=O)O4)[C@H]13 [eplerenone] | Neither eplerenone nor adrenalectomy reduced blood pressure | prevention by eplerenone (epoxymexrenone) of vascular inflammation; also recorded: one of the ten | prevention by eplerenone of induction of COX-2 expression | markedly reduced and in most cases completely prevented the expression of cycloxygenase-2 | completely prevented the vascular inflammatory changes; also recorded: prevention by eplerenone of myocardial injury | 4.08 µg/mg and 2.41 µg/mg | reduction in histopathological scores for renal injury |  |  |  |
| C[C@]12CCC(=O)C=C1CC[C@@H]1[C@@H]2[C@@H](O)C[C@]2(C=O)[C@@H](C(=O)CO)CC[C@@H]12 [aldosterone] | increased blood pressure | restored the severe coronary and myocardial inflammation and injury | restored the presence of cycloxygenase-2 in coronary arteries |  | severe vascular inflammatory lesions |  |  | 7 fold | 3 fold | 3.7±0.46 |
